How the values were obtained:
[1] = target: BK channel (Bos taurus, UniProt Q28204); assay: Single channel experiments, cultured bovine aortic smooth muscle cells; assay type: cell-based
Procedure: (§1) All experiments were performed with patch-clamp technique (Hamill et al., Pflugers Arch. 391, 85-100 (1981)). The ion composition of the internal solution was (in mM) 140 KCl, 1 CaCl2, 1 MgCl2, 2 EGTA, 10 HEPES and the external solution contained 140 NaCl, 4 KCl, 2 CaCl2, 1 MgCl2 and 10 HEPES.
The BK channels were also activated by N-(3-(trifluoromethyl)phenyl)-N'-(2-hydroxy-5-chlorophenyl) urea and N-phenyl-N'-(2-hydroxy-5-chlorophenyl) urea at concentrations equal or greater than 3 μM and by N-(3-(trifluoromethyl)phenyl)-N'-(2-hydroxy-5-(trifluoromethyl)phenyl) urea at concentrations greater than 10 μM.

[2] = test system: acetylcholine-contracted guinea-pig ileum; assay: Guinea-pig ileum experiment (relaxation of acetylcholine-contracted ileum); settings: 3-30 μM; ileum precontracted with acetylcholine 0.015-5.0 μM
Procedure: The compound, N-(3-(trifluoromethyl)phenyl)-N'-(2-hydroxy-5-chlorophenyl) urea, has been studied for its ability to relax acetylcholine-contracted guinea-pig ileum. The smooth muscle cells of the ileum express many BK channels and the model predicts relaxing effects on the gastrointestinal or urogenital tracts.
Method: Ileum from guinea-pigs are isolated and mounted in an isometric contraction chamber. It is bathed in a physiological Krebs solution at 98° F. The ileum is precontracted with increasing concentrations of acetylcholine (0.015-5.0 μM). The contractions are reversed by including the compound in the bathing solution.

[3] = test system: cocaine induced hypermotility; assay: Cocaine motility test; assay type: in vivo; settings: 10-30 mg/kg i.p. 15 min before 25 mg/kg cocaine; female NMRI mice; motility over 120 min
Procedure: The compound, N-(3-(trifluoromethyl)phenyl)-N'-(2-hydroxy-5-chlorophenyl) urea, has been studied in the cocaine motility test. Cocaine induces hypermotility due to an inhibition of dopamine reuptake. The test is recognized as a test predicting anti-psychotic activity.
Method: Two female NMRI mice (20-25 g) are placed in each test box (normal transparent plexiglas cage, w, l, h=21×39×19 cm) in the test room for at least 16 hours with food and water ad libitum before the test in order for the animals to habituate to the situation. The test compound is administered i.p. 15 min before saline or 25 mg/kg cocaine jip. to 32 mice (16 boxes) per dose. Food and water are withdrawn, and the motility is measured as the number of interrupted infrared photo-beams (8 per box placed 5 cm apart and 3 cm over the bottom of the cage) for the next 120 min.

[4] = target: BK currents (Bos taurus, UniProt Q28204); assay: Whole cell recordings (patch-clamp, voltage clamp) of membrane currents in calf aortic smooth muscle cells; assay type: cell-based; settings: 1-10 μM in the bath
Procedure: as §1
The membrane currents of calf aortic smooth muscle cells were determined in whole-cell recordings using voltage clamp mode (HEKA EPC-9 patch-clamp amplifier).

[5] = test system: BK channel; assay: Single channel experiments, inside-out patches of human coronary artery smooth muscle cell membrane; assay type: cell-based; settings: 1-10 μM
Procedure: as §1
In inside-out patches of human coronary artery smooth muscle cell membrane single BK channels were activated by for example N-(3-(trifluoromethyl)phenyl)-N'-(2-hydroxy-5-chlorophenyl) urea (1-10 μM).

Sequence of BK currents (Q28067 whole entry): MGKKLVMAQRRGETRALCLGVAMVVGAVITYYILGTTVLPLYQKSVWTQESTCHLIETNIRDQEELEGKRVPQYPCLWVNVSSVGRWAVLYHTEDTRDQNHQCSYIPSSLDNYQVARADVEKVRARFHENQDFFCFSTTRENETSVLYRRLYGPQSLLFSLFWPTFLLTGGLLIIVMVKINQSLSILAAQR
Sequence of BK currents (Q28204 whole entry): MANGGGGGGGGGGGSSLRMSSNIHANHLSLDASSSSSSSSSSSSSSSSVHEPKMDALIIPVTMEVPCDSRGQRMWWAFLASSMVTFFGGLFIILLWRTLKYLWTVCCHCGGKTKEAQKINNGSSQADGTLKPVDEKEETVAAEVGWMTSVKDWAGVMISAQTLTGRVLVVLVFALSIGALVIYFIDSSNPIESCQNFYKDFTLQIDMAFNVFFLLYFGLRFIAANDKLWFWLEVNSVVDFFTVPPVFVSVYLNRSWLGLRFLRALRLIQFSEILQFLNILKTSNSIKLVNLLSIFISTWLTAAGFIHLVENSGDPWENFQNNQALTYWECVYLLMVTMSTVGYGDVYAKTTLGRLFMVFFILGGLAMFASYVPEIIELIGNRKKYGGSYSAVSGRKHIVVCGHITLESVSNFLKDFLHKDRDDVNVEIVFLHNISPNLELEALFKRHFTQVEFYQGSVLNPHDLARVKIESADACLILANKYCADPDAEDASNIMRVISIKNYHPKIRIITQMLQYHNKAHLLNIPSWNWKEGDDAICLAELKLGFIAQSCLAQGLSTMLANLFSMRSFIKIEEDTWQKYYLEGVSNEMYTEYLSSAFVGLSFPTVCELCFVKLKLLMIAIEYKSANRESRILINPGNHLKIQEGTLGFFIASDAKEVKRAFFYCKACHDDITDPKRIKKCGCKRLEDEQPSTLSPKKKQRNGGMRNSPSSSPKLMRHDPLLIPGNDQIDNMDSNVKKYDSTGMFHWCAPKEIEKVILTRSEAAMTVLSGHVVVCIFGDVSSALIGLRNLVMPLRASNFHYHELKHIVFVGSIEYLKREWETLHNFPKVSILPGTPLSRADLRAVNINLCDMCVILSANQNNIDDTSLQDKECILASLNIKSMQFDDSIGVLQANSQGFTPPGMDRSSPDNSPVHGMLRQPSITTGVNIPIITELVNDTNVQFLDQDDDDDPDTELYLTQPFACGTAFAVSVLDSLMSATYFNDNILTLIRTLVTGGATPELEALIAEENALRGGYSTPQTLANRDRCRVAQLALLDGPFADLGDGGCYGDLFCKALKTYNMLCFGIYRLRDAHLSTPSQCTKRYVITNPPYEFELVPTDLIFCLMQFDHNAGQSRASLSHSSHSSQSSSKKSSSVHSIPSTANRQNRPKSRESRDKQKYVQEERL
Sequence of BK channel (Bos taurus, UniProt Q28204) (Q28204 whole entry): as above
Sequence of BK channel (Bos taurus, UniProt Q28204) (Q28067 whole entry partner): as the sequence (Q28067 whole entry) above

`O=C(Nc1cccc(C(F)(F)F)c1)Nc1cc(C(F)(F)F)ccc1O` [N-(3-(trifluoromethyl)phenyl)-N'-(2-hydroxy-5-(trifluoromethyl)phenyl) urea] was tested, and the “concentrations at which the BK channels were activated” value (shortened to “concentrations”) [1] was “greater than 10 μM”.
With `O=C(Nc1cccc(C(F)(F)F)c1)Nc1cc(Cl)ccc1O` [N-(3-(trifluoromethyl)phenyl)-N'-(2-hydroxy-5-chlorophenyl) urea] the “relaxation of acetylcholine-contracted guinea-pig ileum” value [2] was “relaxes the ileum in a dose-dependent way”, the “antagonism of cocaine induced hypermotility” value [3] was “antagonizes cocaine induced hypermotility” and the “activation of BK currents (blockable by charybdotoxin)” value [4] was “specifically activated BK currents”. The “increase of the outward current” value [4] was “up to 10 times”, the “shift of the activation curve towards negative membrane potentials” value [4] was “more than -60 mV” and the “concentrations” value [1] was at least 3 µM. For the same compound, the “activation of the BK channel” value ([1]; 1 μM) was “significantly activated”, the “activation of single BK channels” value [5] was “activated” and the “increase of the open probability of the BK channel” value [5] was “several hundred”.
For `O=C(Nc1ccccc1)Nc1cc(Cl)ccc1O` [N-phenyl-N'-(2-hydroxy-5-chlorophenyl) urea], the “concentrations” value [1] was at least 3 µM.
